The values below come from article PMC8308786, “Discovery and Characterization of a Novel MASTL Inhibitor MKI-2 Targeting MASTL-PP2A in Breast Cancer Cells and Oocytes” (Pharmaceuticals, 2021).

The assay has as its target T1, MASTL (Homo sapiens, UniProt Q96GX5).
T1 construct: recombinant GST-tagged-MASTL
T1 sequence (Q96GX5 1-879): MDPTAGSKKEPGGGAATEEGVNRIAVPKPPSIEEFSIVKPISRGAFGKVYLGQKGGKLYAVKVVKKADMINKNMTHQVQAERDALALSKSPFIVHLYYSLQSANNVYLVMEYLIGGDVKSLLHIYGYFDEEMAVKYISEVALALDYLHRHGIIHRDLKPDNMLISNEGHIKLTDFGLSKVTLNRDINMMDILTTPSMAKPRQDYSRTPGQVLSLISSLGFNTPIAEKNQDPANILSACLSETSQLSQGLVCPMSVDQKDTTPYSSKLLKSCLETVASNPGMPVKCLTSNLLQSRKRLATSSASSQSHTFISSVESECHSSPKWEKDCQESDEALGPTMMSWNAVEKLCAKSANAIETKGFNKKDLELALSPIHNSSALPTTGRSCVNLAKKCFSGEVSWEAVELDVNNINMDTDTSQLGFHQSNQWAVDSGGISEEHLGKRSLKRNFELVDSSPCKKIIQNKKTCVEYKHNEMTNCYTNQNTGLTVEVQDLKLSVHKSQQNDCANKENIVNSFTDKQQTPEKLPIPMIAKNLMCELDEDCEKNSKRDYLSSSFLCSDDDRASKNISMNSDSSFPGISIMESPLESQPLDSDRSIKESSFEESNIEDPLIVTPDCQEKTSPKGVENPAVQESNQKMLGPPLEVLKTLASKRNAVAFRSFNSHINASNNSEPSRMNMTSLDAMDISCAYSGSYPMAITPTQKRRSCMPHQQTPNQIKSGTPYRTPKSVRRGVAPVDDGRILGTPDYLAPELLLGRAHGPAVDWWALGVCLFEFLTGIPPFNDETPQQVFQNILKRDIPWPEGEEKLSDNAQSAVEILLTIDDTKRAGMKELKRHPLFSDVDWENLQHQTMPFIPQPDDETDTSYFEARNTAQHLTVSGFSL
The assay is described as follows: in vitro kinase assay with recombinant GST-MASTL and His-ENSA substrate; also HTRF KinEASE and ADP-Glo. It counts as biochemical. Background: TR-FRET usually uses a lanthanide donor and a delayed reading to cut background.

What is called IC50 is the concentration that gives 50% inhibition. In the case of `N#CCc1ccc(Nc2nc(Nc3cc(C4CC4)[nH]n3)c3ccccc3n2)cc1` [#248, 2-(4-((4-((5-cyclopropyl-1H-pyrazol-3-yl)amino)quinazolin-2-yl)amino)phenyl)acetonitrile], the IC50 amounted to 0.0374 µM.
